Data published in patent publication US20240124408A1 (Sanofi, priority 2020, published 2024).
pEC50: −log10 of the molar value.

Key:
[1] = biological target: T1, human TRPM8 (Homo sapiens, UniProt Q7Z2W7); assay: In vitro human TRPM8 fluorescence calcium flux assay (recombinant CHO cells, Fluo4-AM, FDSS6000); type: cell-based; conditions: recombinant CHO cells expressing human TRPM8; menthol-related EC50, normalized to 100 μM menthol
T1 construct: expressed in transfected cells; host or cells: CHO (p658 mammalian expression vector)
Description: (§1) In Vitro Pig and Human TRPM8 Fluorescence Calcium Flux Assays
(§2) For functional expression of TRPM8, the full-length cDNA encoding human (NM_024080) and pig (XM_001927892.1) TRPM8 sequences were subcloned into p658 and pcDNA5/FRT/TO mammalian expression vectors, respectively. Engineered recombinant CHO cell lines expressing human or pig TRPM8 were generated. Culture media was Ham-F12 with 10% FCS for both lines, and for the pig cell line only 400 μg/ml hygromycin B and 30 μg/mL blasticidin were added as selection antibiotics (all reagents were obtained from Invitrogen, Fisher Scientific). Cells were grown in culture flasks up to 80% confluence where they were harvested using accutase (Sigma, MO, USA) to detach the cells by enzymatic dissociation and either seeded directly into assay plates or cryopreserved for future use.
(§3) For calcium flux assays, cells were plated into clear base poly-D-lysine coated 384-well plates (BD Biosciences, NJ USA) at a density of 15,000 cells per well in appropriate culture medium and grown overnight. The following day, all medium was removed then the cells were incubated with 2 μM of Fluo4-AM Dye (Molecular Probes) prepared in complete HBSS assay buffer containing 20 mM HEPES, 0.1% BSA, and 2.5 mM probenecid at room temperature for one hour. Following incubation, plates were inserted into a FDSS6000 instrument (Hamamatsu, Photonics, Japan) instrument, where cells were challenged with compounds of the formula (at varying concentrations) and intracellular calcium was measured kinetically for 3 min after addition.
(§4) This protocol allowed the determination of an EC50 value, from the sixteen-point dose response data, for each compound of the formula tested. Maximal fluorescence intensity achieved upon addition of 100 μM menthol (stock solution prepared in ethanol from solid, Sigma-Aldrich) was exported from the FDSS and further analyzed using IDBS XLFit 5. Data were normalized to the average 100 μM menthol response (maximum control wells) included in each plate. The dose response curves from the average of wells for each data point were analyzed by using nonlinear regression of sigmoidal dose response (formula 205). Finally, the (menthol-related) EC50 values (Half maximal effective concentration) were calculated with the best-fit dose curve determined by IDBS XLFit 5 software.

[2] = biological target: T2, pig TRPM8 (Sus scrofa, UniProt F1SM15); assay: In vitro pig TRPM8 fluorescence calcium flux assay (recombinant CHO cells, Fluo4-AM, FDSS6000); type: cell-based; conditions: recombinant CHO cells expressing pig TRPM8; menthol-related EC50, normalized to 100 μM menthol
T2 construct: expressed in transfected cells; host or cells: CHO (pcDNA5/FRT/TO vector; hygromycin B and blasticidin selection)
Description: as §1, §2, §3, §4

T2 sequence (F1SM15 1-1104): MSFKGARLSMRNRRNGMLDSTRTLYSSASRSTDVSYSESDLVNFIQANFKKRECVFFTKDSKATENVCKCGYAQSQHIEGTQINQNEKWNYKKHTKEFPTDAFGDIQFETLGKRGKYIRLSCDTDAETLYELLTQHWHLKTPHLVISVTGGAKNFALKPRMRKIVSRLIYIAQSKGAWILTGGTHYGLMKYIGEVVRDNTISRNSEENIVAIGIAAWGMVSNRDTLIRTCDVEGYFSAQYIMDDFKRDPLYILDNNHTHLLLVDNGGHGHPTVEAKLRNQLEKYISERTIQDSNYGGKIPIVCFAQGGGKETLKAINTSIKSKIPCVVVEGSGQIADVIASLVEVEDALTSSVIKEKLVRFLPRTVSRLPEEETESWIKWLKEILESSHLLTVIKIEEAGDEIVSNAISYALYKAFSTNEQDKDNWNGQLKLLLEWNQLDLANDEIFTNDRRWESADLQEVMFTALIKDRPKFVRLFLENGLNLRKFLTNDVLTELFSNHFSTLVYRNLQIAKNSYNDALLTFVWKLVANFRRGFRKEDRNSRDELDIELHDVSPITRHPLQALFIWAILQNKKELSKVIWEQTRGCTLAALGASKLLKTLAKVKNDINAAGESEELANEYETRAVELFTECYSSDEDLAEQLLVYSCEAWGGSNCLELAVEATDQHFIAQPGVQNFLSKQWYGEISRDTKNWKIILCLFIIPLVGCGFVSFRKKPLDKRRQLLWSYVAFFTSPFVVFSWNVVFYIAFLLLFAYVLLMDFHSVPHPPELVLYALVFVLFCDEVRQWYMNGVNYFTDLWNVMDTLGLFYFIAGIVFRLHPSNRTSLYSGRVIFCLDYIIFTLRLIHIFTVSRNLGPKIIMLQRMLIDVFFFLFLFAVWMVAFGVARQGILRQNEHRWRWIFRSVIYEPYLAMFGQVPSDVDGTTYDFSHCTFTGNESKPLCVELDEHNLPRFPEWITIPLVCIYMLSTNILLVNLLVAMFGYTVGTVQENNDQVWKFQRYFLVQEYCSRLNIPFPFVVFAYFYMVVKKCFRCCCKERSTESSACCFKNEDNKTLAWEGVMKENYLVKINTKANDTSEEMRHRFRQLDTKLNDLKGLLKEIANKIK
T1 sequence (Q7Z2W7 whole entry): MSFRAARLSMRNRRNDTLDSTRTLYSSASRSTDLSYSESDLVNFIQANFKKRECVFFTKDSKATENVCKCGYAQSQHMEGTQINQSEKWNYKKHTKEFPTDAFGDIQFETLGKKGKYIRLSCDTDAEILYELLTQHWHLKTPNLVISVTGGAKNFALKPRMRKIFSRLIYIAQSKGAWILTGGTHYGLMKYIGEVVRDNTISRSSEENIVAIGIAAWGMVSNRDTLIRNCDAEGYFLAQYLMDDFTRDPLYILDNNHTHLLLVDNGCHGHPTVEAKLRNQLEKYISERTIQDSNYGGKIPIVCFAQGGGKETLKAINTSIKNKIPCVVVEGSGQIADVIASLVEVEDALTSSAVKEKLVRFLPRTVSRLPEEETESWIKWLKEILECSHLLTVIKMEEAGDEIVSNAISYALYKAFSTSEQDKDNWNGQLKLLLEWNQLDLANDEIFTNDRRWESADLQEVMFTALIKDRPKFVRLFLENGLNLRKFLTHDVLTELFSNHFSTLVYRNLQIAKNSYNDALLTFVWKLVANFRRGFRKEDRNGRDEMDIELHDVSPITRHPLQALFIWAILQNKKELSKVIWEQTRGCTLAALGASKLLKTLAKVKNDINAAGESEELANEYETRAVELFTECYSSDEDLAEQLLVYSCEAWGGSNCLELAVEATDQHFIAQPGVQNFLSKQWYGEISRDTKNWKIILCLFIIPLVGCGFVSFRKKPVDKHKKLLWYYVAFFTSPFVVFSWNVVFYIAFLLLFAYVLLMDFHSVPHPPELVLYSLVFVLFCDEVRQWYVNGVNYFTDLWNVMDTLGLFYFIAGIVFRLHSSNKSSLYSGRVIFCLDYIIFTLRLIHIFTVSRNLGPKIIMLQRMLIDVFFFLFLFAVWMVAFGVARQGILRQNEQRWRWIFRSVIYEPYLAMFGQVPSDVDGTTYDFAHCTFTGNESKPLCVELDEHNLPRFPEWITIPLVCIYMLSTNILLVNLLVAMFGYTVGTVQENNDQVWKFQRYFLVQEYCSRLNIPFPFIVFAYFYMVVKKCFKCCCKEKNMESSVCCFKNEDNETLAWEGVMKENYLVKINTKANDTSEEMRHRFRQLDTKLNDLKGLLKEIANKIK

SMILES | pEC50 [1] | pEC50 [2]
COCCOCCOCCOc1cccc(CCNC(=O)[C@]2(O)C[C@H](C)CC[C@H]2C(C)C)c1 [Example 185, (1S,2S,5R)-1-hydroxy-2-isopropyl-N-[2-[3-[2-[2-(2-methoxyethoxy)ethoxy]ethoxy]phenyl]ethyl]-5-methyl-cyclohexanecarboxamide] | 6.96 | 7.17
CC(C)[C@@H]1CC[C@@H](C)C[C@@]1(O)C(=O)NCC1(O)CCc2ccccc21 (single isomer, unassigned) [Example 176] | 8.96 | 8.89
CC(C)[C@@H]1CC[C@@H](C)C[C@@]1(O)C(=O)NCCc1ccc(O)c([N+](=O)[O-])c1 [Example 166, (1S,2S,5R)-1-hydroxy-N-[2-(4-hydroxy-3-nitro-phenyl)ethyl]-2-isopropyl-5-methyl-cyclohexanecarboxamide] | 7.78 | 7.82
CC(=O)NCCOc1ccccc1CCNC(=O)[C@]1(O)C[C@H](C)CC[C@H]1C(C)C [Example 84, (1S,2S,5R)—N-(2-(2-acetamidoethoxy)phenethyl)-1-hydroxy-2-isopropyl-5-methylcyclohexane-1-carboxamide] | 6.84 | 6.85
COc1cccc(C(F)(F)CNC(=O)[C@]2(O)C[C@H](C)CC[C@H]2C(C)C)c1 [Example 188, (1S,2S,5R)—N-[2,2-difluoro-2-(3-methoxyphenyl)ethyl]-1-hydroxy-2-isopropyl-5-methyl-cyclohexanecarboxamide] | 7.12 | 7.62
CC(C)[C@@H]1CC[C@@H](C)C[C@@]1(O)C(=O)NCCc1cnccn1 [Example 131, (1S,2S,5R)-1-hydroxy-2-isopropyl-5-methyl-N-(2-pyrazin-2-ylethyl)cyclohexanecarboxamide] | 6.22 | 6.57
COc1ccc2c(c1)OCC2CNC(=O)[C@]1(O)C[C@H](C)CC[C@H]1C(C)C (stereo partly drawn) [Example 154, (1S,2S,5R)-1-hydroxy-2-isopropyl-N-[(6-methoxy-2,3-dihydrobenzofuran-3-yl)methyl]-5-methyl-cyclohexanecarboxamide] | 7.07 | 7.34
Cc1cccc([C@H](O)CNC(=O)[C@]2(O)C[C@H](C)CC[C@H]2C(C)C)c1 [Example 46, (1S,2S,5R)-1-hydroxy-N-((2S)-hydroxy-2-(m-tolyl)ethyl)-2-isopropyl-5-methylcyclohexane-1-carboxamide] | 7.92 | 8.34
COc1cccc(CCNC(=O)[C@]2(O)C[C@H](C)CC[C@H]2C(C)C)c1OC [Example 115, (1S,2S,5R)-N-[2-(2,3-dimethoxyphenyl)ethyl]-1-hydroxy-2-isopropyl-5-methyl-cyclohexanecarboxamide] | 6.10 | 6.44
CC(C)[C@@H]1CC[C@@H](C)C[C@@]1(O)C(=O)NCC1(O)CCCc2ccccc21 (mixture of isomers) [Example 177, (1S,2S,5R)-1-hydroxy-N-(((1RS)-hydroxy-1,2,3,4-tetrahydronaphthalen-1-yl)methyl)-2-isopropyl-5-methylcyclohexane-1-carboxamide] | 8.44 | 8.47
COC(=O)CC(CNC(=O)[C@]1(O)C[C@H](C)CC[C@H]1C(C)C)c1ccccc1 (stereo partly drawn) [Example 65, methyl 4-((1S,2S,5R)-1-hydroxy-2-isopropyl-5-methylcyclohexane-1-carboxamido)-3-phenyl butanoate] | 6.45 | 6.14
Cc1ccc(CCNC(=O)[C@]2(O)C[C@H](C)CC[C@H]2C(C)C)cc1 [Example 60, (1S,2S,5R)-1-hydroxy-2-isopropyl-5-methyl-N-(4-methylphenethyl)cyclohexane-1-carboxamide] | 7.36 | 8.15
CC(C)[C@@H]1CC[C@@H](C)C[C@@]1(O)C(=O)NC(CCO)c1cccc(O)c1 (stereo partly drawn) [Example 163, (1S,2S,5R)-1-hydroxy-N-[3-hydroxy-1-(3-hydroxyphenyl)propyl]-2-isopropyl-5-methyl-cyclohexanecarboxamide] | 6.18 | 6.03
COc1ccc(C(=O)CNC(=O)[C@]2(O)C[C@H](C)CC[C@H]2C(C)C)cc1 [Example 121, (1S,2S,5R)-1-hydroxy-2-isopropyl-N-[2-(4-methoxyphenyl)-2-oxo-ethyl]-5-methyl-cyclohexanecarboxamide] | 7.73 | 8.31
CC(C)[C@@H]1CC[C@@H](C)C[C@@]1(O)C(=O)NCCc1cccc(C(=O)OC[C@H](C)O)c1 [Example 105, (S)-2-hydroxypropyl 3-(2-((1S,2S,5R)-1-hydroxy-2-isopropyl-5-methylcyclohexane-1-carboxamido)ethyl)benzoate] | 7.51 | 7.55
CC(C)[C@@H]1CC[C@@H](C)C[C@@]1(O)C(=O)NCc1cccc(O)c1 [Example 165, (1S,2S,5R)-1-hydroxy-N-[(3-hydroxyphenyl)methyl]-2-isopropyl-5-methyl-cyclohexanecarboxamide] | 6.48 | 6.43
CC(C)[C@@H]1CC[C@@H](C)C[C@@]1(O)C(=O)NCC(=O)c1ccc(O)cc1O [Example 102, (1S,2S,5R)—N-(2-(2,4-dihydroxyphenyl)-2-oxoethyl)-1-hydroxy-2-isopropyl-5-methylcyclohexane-1-carboxamide] | 7.38 | 7.16
CC(C)[C@@H]1CC[C@@H](C)C[C@@]1(O)C(=O)NCCc1ccc(S(N)(=O)=O)cc1 [Example 118, (1S,2S,5R)-1-hydroxy-2-isopropyl-5-methyl-N-[2-(4-sulfamoylphenyl)ethyl]cyclohexanecarboxamide] | 6.25 | 6.58
CC(C)[C@@H]1CC[C@@H](C)C[C@@]1(O)C(=O)NCC(=O)c1ccc(F)cc1 [Example 135, (1S,2S,5R)-N-[2-(4-fluorophenyl)-2-oxo-ethyl]-1-hydroxy-2-isopropyl-5-methyl-cyclohexanecarboxamide] | 8.68 | 8.96
CC(C)[C@@H]1CC[C@@H](C)C[C@@]1(O)C(=O)NCC(=O)c1sccc1Cl [Example 148, (1S,2S,5R)-N-[2-(3-chloro-2-thienyl)-2-oxo-ethyl]-1-hydroxy-2-isopropyl-5-methyl-cyclohexanecarboxamide] | 8.40 | 8.40
CC(C)[C@@H]1CC[C@@H](C)C[C@@]1(O)C(=O)NCC(=O)OCc1ccccc1 [Example 132, benzyl 2-[[(1S,2S,5R)-1-hydroxy-2-isopropyl-5-methyl-cyclohexanecarbonyl]amino]acetate] | 6.52 | 7.10
CC(C)[C@@H]1CC[C@@H](C)C[C@@]1(O)C(=O)NCC1OCCc2ccccc21 (single isomer, unassigned) [Example 98] | 7.28 | 7.19
